Measured values as given in patent publication US11655258B2, “Heterocycle derivatives as pesticides” (BAYER AKTIENGESELLSCHAFT, priority 2017, dated 2023).

What was measured:
Ctenocephalides felis [1] = test: Ctenocephalides felis in vitro contact test with adult cat fleas; format: in vivo; conditions: application rate 5 μg/cm^2 (=500 g of ai/ha), after 48 h
Experimental: Ctenocephalides felis—In Vitro Contact Tests with Adult Cat Fleas
(§1) For the coating of the test tubes, 9 mg of active compound are first dissolved in 1 ml of acetone p.a. and then diluted to the desired concentration with acetone p.a. 250 μl of the solution are distributed homogeneously on the inner walls and the base of a 25 ml glass tube by turning and rocking on an orbital shaker (rocking rotation at 30 rpm for 2 h). With 900 ppm of active compound solution and internal surface area 44.7 cm^2, given homogeneous distribution, an area-based dose of 5 μg/cm^2 is achieved.
After the solvent has evaporated off, the tubes are populated with 5-10 adult cat fleas (Ctenocephalides felis), sealed with a perforated plastic lid and incubated in a horizontal position at room temperature and ambient humidity. After 48 h, efficacy is determined. To this end, the tubes are stood upright and the fleas are knocked to the base of the tube. Fleas which remain motionless at the base or move in an uncoordinated manner are considered to be dead or moribund.
100% efficacy means that all the fleas were dead or moribund. 0% efficacy means that no fleas were harmed.

Phaedon cochleariae = Phaedon cochleariae spray test; format: in vivo; conditions: 168 h, after 7 days, read-out: efficacy; for pest or weed control at 20 g/ha: application rate 20 g/ha; for pest or weed control at 100 g/ha: application rate 100 g/ha
Experimental: Phaedon cochleariae—Spray Test • Solvent: 78.0 parts by weight of acetone • 1.5 parts by weight of dimethylformamide • Emulsifier: alkylaryl polyglycol ether
(§2) To produce a suitable active compound preparation, 1 part by weight of active compound is dissolved using the stated parts by weight of solvent and made up with water containing an emulsifier concentration of 1000 ppm until the desired concentration is attained. To produce further test concentrations, the formulation is diluted with emulsifier-containing water.
Discs of Chinese cabbage leaves (Brassica pekinensis) are sprayed with an active compound formulation of the desired concentration and, after drying, populated with larvae of the mustard beetle (Phaedon cochleariae).
After 7 days, the efficacy in % is determined. 100% means that all the beetle larvae have been killed; 0% means that no beetle larvae have been killed.

Spodoptera frugiperda = Spodoptera frugiperda spray test; format: in vivo; conditions: application rate 100 g/ha, after 7 days
Experimental: Spodoptera frugiperda—Spray Test • Solvent: 78.0 parts by weight of acetone • 1.5 parts by weight of dimethylformamide • Emulsifier: alkylaryl polyglycol ether
as §2
Leaf discs of maize (Zea mays) are sprayed with an active compound formulation of the desired concentration and, after drying, populated with caterpillars of the fall armyworm (Spodoptera frugiperda).
After 7 days, the efficacy in % is determined. 100% means that all the caterpillars have been killed; 0% means that no caterpillar has been killed.

Lucilia cuprina = Lucilia cuprina test; format: in vivo; conditions: application rate 100 ppm, L1 larvae, after 2 days
Experimental: Lucilia cuprina Test • Solvent: dimethyl sulfoxide
(§3) To produce a suitable active compound formulation, 10 mg of active compound are mixed with 0.5 ml of dimethyl sulfoxide, and the concentrate is diluted with water to the desired concentration.
About 20 L1 larvae of the Australian sheep blowfly (Lucilia cuprina) are transferred into a test vessel containing minced horsemeat and the active compound formulation of the desired concentration.
After 2 days, the kill in % is determined. 100% means that all the larvae have been killed; 0% means that no larvae have been killed.

Musca domestica = Musca domestica test; format: in vivo; conditions: application rate 100 ppm, adult houseflies, after 2 days
Experimental: Musca domestica Test • Solvent: dimethyl sulfoxide
as §3
Vessels containing a sponge treated with sugar solution and the desired concentration of active compound formulation are populated with 10 adult houseflies (Musca domestica).
After 2 days, the kill in % is determined. 100% means that all of the flies have been killed; 0% means that none of the flies have been killed.

Myzus persicae [2] = test: Myzus persicae oral test; format: in vivo; conditions: 120 h, application rate 4 ppm, after 5 days, read-out: efficacy
Experimental: Myzus persicae Oral Test • Solvent: 100 parts by weight of acetone
To produce a suitable preparation of active compound, 1 part by weight of active compound is dissolved using the specified parts by weight of solvent and made up with water until the desired concentration is attained.
50 μl of the active compound preparation are transferred into microtitre plates and made up to a final volume of 200 μl with 150 μl of IPL41 insect medium (33%+15% sugar). Subsequently, the plates are sealed with parafilm, which a mixed population of green peach aphids (Myzus persicae) within a second microtitre plate is able to puncture and imbibe the solution through.
(§4) After 5 days, the efficacy in % is determined. 100% means that all the aphids have been killed; 0% means that no aphids have been killed.

[3] = log P by HPLC on reversed-phase column (EEC Directive 79/831 Annex V.A8); format: physicochemical; conditions: reversed-phase HPLC column (C18); pH 7.8, 0.001 molar aqueous ammonium bicarbonate/acetonitrile, 55° C.; read-out: log P (neutral)
Experimental: The log P values are measured according to EEC Directive 79/831 Annex V.A8 by HPLC (high-performance liquid chromatography) on a reversed-phase column (C 18). Temperature: 55° C.
The LC-MS determination in the neutral range is effected at pH 7.8 with 0.001 molar aqueous ammonium bicarbonate solution and acetonitrile as mobile phases; linear gradient from 10% acetonitrile to 95% acetonitrile. Called log P (neutral) in the table.
Calibration is carried out using unbranched alkan-2-ones (having 3 to 16 carbon atoms) with known Log P values (Log P values determined on the basis of the retention times by linear interpolation between two successive alkanones).

Myzus persicae [4] = test: Myzus persicae drench test (MYZUPE D), savoy cabbage; format: in vivo; conditions: soil, 240 h, 10 dat, read-out: % efficacy
Experimental: Myzus persicae—Drench Test (MYZUPE D) • Solvent: 7 parts by weight of dimethylformamide • Emulsifier: 2 parts by weight of alkylaryl polyglycol ether
To produce a suitable active compound preparation, 1 part by weight of active compound is mixed with the specified amounts of solvent and emulsifier, and the concentrate is diluted with water to the desired concentration, it being necessary to include the volume of soil which is drenched in the calculation. It should be ensured that a concentration of 40 ppm of emulsifier in the soil is not exceeded. To produce further test concentrations, water is used for dilution.
Savoy cabbage (Brassica oleracea) in pots with soil and infested by all stages of the green peach aphid (Myzus persicae) is watered with an active compound preparation of the desired concentration.
After the desired period of time, the efficacy in % is determined. 100% means that all the aphids have been killed; 0% means that no aphids have been killed.

Nilaparvata lugens = Nilaparvata lugens spray test (NILALU); format: in vivo; conditions: 96 h, 500 g/ha, 4 dat, read-out: % efficacy
Experimental: Nilaparvata lugens—Spray Test (NILALU) • Solvent: 52.5 parts by weight of acetone • 7 parts by weight of dimethylformamide • Emulsifier: alkylaryl polyglycol ether
as §2, with “water. If the addition of ammonium salts or/and penetrants is required, these are each added in a concentration of 1000 ppm to the formulation solution.” for “water.”
Rice plants (Oryza sativa) are sprayed with an active ingredient formulation of the desired concentration and then populated with larvae of the brown planthopper (Nilaparvata lugens).
After the desired period of time, the efficacy in % is determined. 100% means that all of the planthoppers have been killed; 0% means that none of the planthoppers have been killed.

Ctenocephalides felis [5] = test: Ctenocephalides felis oral test; format: in vivo; conditions: application rate 100 ppm in citrated cattle blood, after 2 days
Experimental: Ctenocephalides felis—Oral Test • Solvent: dimethyl sulfoxide
To produce a suitable active compound formulation, 10 mg of active compound are mixed with 0.5 ml of dimethyl sulfoxide. Dilution with citrated cattle blood gives the desired concentration.
About 20 unfed adult cat fleas (Ctenocephalides felis) are placed into a chamber which is closed at the top and bottom with gauze. A metal cylinder whose bottom end is closed with parafilm is placed onto the chamber. The cylinder contains the blood/active compound formulation, which can be imbibed by the fleas through the parafilm membrane.
After 2 days, the kill in % is determined. 100% means that all of the fleas have been killed; 0% means that none of the fleas have been killed.

Myzus persicae [6] = test: Myzus persicae spray test (MYZUPE S), bell pepper plants; format: in vivo; conditions: 144 h, 6 dat, read-out: % efficacy
Experimental: Myzus persicae—Spray Test (MYZUPE S) • Solvent: 14 parts by weight of dimethylformamide • Emulsifier: alkylaryl polyglycol ether
as §2, with “water. If the addition of ammonium salts or/and penetrants is required, these are each added in a concentration of 1000 ppm to the formulation solution.” for “water.”
Bell pepper plants (Capsicum annuum) severely infested with the green peach aphid (Myzus persicae) are treated by spraying with the active compound formulation in the desired concentration.
After the desired time, the kill in % is determined. 100% means that all the animals have been killed; 0% means that no animals have been killed.

Aphis gossypii = Aphis gossypii spray test (APHIGO); format: in vivo; conditions: 144 h, 6 dat, read-out: % efficacy
Experimental: Aphis gossypii Spray Test (APHIGO) • Solvent: 14 parts by weight of dimethylformamide • Emulsifier: alkylaryl polyglycol ether
as §2, with “water. If the addition of ammonium salts or/and penetrants is required, these are each added in a concentration of 1000 ppm to the formulation solution.” for “water.”
Cotton plants (Gossypium hirsutum) heavily infested by the cotton aphid (Aphis gossypii) are sprayed with an active compound formulation of the desired concentration.
After the desired time, the kill in % is determined. 100% means that all the aphids have been killed; 0% means that no aphids have been killed.

Rhipicephalus sanguineus = Rhipicephalus sanguineus in vitro contact test with adult brown dog ticks; format: in vivo; conditions: application rate 1 μg/cm^2 (=100 g of ai/ha), after 48 h
Experimental: Rhipicephalus sanguineus—In Vitro Contact Tests with Adult Brown Doe Ticks
as §1
After the solvent has evaporated off, the tubes are populated with 5-10 adult dog ticks (Rhipicephalus sanguineus), sealed with a perforated plastic lid and incubated in a horizontal position in the dark at room temperature and ambient humidity. After 48 h, efficacy is determined. To this end, the ticks are knocked to the base of the tube and incubated on a hotplate at 45-50° C. for not more than 5 min. Ticks which remain motionless on the base or move in such an uncoordinated manner that they are unable to deliberately avoid the heat by climbing upwards are considered to be dead or moribund.
An efficacy of 100% means that all the ticks were dead or moribund. 0% efficacy means that none of the ticks were harmed.

Myzus persicae [7] = test: Myzus persicae spray test (Chinese cabbage leaf discs); format: in vivo; conditions: foliar, 120 h, application rate 100 g/ha, after 5 days, read-out: efficacy
Experimental: Myzus persicae Spray Test • Solvent: 78 parts by weight of acetone • 1.5 parts by weight of dimethylformamide • Emulsifier: alkylaryl polyglycol ether
as §2
Discs of Chinese cabbage leaves (Brassica pekinensis) infested by all stages of the green peach aphid (Myzus persicae) are sprayed with an active compound formulation of the desired concentration.
as §4

Boophilus microplus = Boophilus microplus injection test; format: in vivo; conditions: application rate 20 μg/animal, laying of fertile eggs after 7 days
Experimental: Boophilus microplus Injection Test • Solvent: dimethyl sulfoxide
To produce a suitable active compound formulation, 10 mg of active compound are mixed with 0.5 ml of solvent and the concentrate is diluted to the desired concentration with solvent.
1 μl of the active compound solution is injected into the abdomen of 5 engorged adult female cattle ticks (Boophilus microplus). The animals are transferred into dishes and kept in a climate-controlled room.
Efficacy is assessed after 7 days by laying of fertile eggs. Eggs which are not visibly fertile are stored in a climate-controlled cabinet until the larvae hatch after about 42 days. An efficacy of 100% means that none of the ticks has laid any fertile eggs; 0% means that all the eggs are fertile.

Row | chromatographic logP [3] | SMILES | efficacy (Ctenocephalides felis [1]) [%] | pest or weed control at 20 g/ha (Phaedon cochleariae) [%] | pest or weed control at 100 g/ha (Phaedon cochleariae) [%] | efficacy (Spodoptera frugiperda) [%] | efficacy (kill) (Lucilia cuprina) [%] | efficacy (kill) (Musca domestica) [%] | pest or weed control at 4 ppm (Myzus persicae [2]) [%] | Emax at 20 ppm (Myzus persicae [4]) [%] | Emax at 500 g/ha (Nilaparvata lugens) [%] | efficacy (kill) (Ctenocephalides felis [5]) [%] | Emax at 20 ppm (Myzus persicae [6]) [%] | Emax at 20 ppm (Aphis gossypii) [%] | efficacy (Rhipicephalus sanguineus) [%] | pest or weed control at 100 g/ha (Myzus persicae [7]) [%] | efficacy (Boophilus microplus) [%]
1 |  | CCS(=O)(=O)c1c(-c2nc3ccc(C(F)(F)F)cn3n2)nc2cc(I)ccn12 [Example I-12] | 100 | 100 | 100 | 100 | 100 | 90 | 90 |  |  |  |  |  |  |  | 
2 | 2.41 | CCS(=O)(=O)c1c(-c2nc3ccc(C(F)(F)F)cn3n2)nc2cc(C(F)(F)F)ccn12 [Example I-01] | 100 | 100 | 100 | 100 | 100 |  | 100 | 90 | 80 | 100 | 95 | 99 |  |  | 
3 |  | CCS(=O)(=O)c1cc2ccccc2nc1-c1nc2cc(C(F)(F)F)ncn2n1 [Example I-05] | 100 | 100 | 100 | 100 | 100 |  | 100 |  |  | 95 |  |  | 80 | 90 | 
4 |  | CCS(=O)(=O)c1c(-c2nc3ccc(C(F)(F)F)cn3n2)nc2cc(NC(=O)C3CC3)ccn12 [Example I-09] |  |  |  |  |  |  | 100 |  |  | 95 |  |  |  |  | 100
